Holding throughout (type): biochemical
For one test, the target named is JAK1 (Homo sapiens (Human), UniProt P23458). Description: JAK Caliper Enzyme Assay at 1 mM ATP, JAK1. The procedure, abridged: (§1)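 Recombinant human kinase domains phosphorylated a fluorescent synthetic peptide at room temperature, with enzyme level and time tuned to 20% to 30% conversion; EDTA stop buffer ended reactions. Mobility-shift separation gave percent product from peak heights, normalised to DMSO and positive controls, and IC50s came from concentration–effect curves.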

Another test has as its target JAK2 (Homo sapiens (Human), UniProt O60674). Description: JAK Caliper Enzyme Assay at 1 mM ATP, JAK2. The method, boiled down: (§2)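 Inhibition is measured as reduced phosphorylation of a synthetic peptide by the recombinant human kinase domain at 1 mM ATP. Conditions give 20–30% conversion at room temperature before EDTA quench, and on-chip separation of labelled substrate and product yields percent conversion for dose–response plotting.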

A further test has as its target TYK2 (Homo sapiens (Human), UniProt P29597). Description: JAK Caliper Enzyme Assay at 1 mM ATP, TYK2. The procedure, abridged:
as §2

The target of another test is JAK3 (Homo sapiens (Human), UniProt P52333). Description: JAK Caliper Enzyme Assay at 1 mM ATP, JAK3. The method, boiled down:
as §1

pIC50: −log10 of the molar value. Bounds are passed on as bounds.

For orientation: pIC50 means the IC50 on a negative log10 scale, so that one unit is a factor of ten.

JAK1, sequence (P23458 875-1153): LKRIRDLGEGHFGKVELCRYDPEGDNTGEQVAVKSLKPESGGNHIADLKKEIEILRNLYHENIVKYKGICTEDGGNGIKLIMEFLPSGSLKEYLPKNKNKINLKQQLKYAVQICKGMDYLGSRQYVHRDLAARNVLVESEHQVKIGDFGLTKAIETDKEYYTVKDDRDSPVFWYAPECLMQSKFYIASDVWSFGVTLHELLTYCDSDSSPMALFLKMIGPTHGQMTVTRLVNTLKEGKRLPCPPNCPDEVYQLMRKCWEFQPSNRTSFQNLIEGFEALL
JAK3, sequence (P52333 822-1111): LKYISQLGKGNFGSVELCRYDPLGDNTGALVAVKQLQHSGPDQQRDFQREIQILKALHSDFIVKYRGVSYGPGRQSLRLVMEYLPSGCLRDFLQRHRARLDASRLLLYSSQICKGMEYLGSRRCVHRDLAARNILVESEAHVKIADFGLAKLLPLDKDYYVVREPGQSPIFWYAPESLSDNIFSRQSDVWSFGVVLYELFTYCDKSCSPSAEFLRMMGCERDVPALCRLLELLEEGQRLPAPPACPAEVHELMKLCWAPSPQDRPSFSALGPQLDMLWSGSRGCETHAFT
JAK2, sequence (O60674 849-1124): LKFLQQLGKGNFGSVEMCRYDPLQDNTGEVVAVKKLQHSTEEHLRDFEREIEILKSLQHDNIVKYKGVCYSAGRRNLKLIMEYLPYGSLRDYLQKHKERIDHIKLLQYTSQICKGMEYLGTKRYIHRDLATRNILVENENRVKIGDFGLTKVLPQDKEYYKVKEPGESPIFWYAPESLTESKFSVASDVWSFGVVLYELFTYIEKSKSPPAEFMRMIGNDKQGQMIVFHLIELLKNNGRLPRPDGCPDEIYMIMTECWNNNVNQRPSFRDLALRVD
TYK2, sequence (P29597 897-1176): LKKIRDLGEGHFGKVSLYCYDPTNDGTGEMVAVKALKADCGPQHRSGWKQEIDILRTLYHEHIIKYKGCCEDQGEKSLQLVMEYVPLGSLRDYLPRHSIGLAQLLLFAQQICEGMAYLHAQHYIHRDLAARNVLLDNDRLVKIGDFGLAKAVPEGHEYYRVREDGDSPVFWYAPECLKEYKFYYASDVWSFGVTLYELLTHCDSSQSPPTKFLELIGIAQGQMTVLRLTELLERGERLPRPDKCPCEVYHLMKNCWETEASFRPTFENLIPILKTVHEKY

`Cc1n[nH]cc1-c1cc2ncccc2c(-c2ccn([C@]3(CC#N)C[C@H](C#N)C3)n2)n1` [Example 90, cis-3-(cyanomethyl)-3-{3-[7-(3-methyl-1H-pyrazol-4-yl)-1,6-naphthyridin-5-yl]-1H-pyrazol-1-yl}cyclobutanecarbonitrile]: the pIC50 on JAK1 was 6.57; on JAK2, 6.90; at TYK2, 7.49; on JAK3, less than 5.00.

As for `N#CC[C@]1(n2ccc(-c3nc(-c4cn[nH]c4CO)cc4ncccc34)n2)C[C@H](C#N)C1` [Example 91, trans-3-(cyanomethyl)-3-(3-{7-[5-(hydroxymethyl)-1H-pyrazol-4-yl]-1,6-naphthyridin-5-yl}-1H-pyrazol-1-yl)cyclobutanecarbonitrile], the pIC50 on JAK1 is 6.25; on JAK2, 6.80; at TYK2 it was 7.47; at JAK3 it was less than 5.00.

Consider `N#CC[C@]1(n2ccc(-c3nc(-c4cn[nH]c4CO)cc4ncccc34)n2)C[C@@H](C#N)C1` [Example 92, cis-3-(cyanomethyl)-3-(3-{7-[5-(hydroxymethyl)-1H-pyrazol-4-yl]-1,6-naphthyridin-5-yl}-1H-pyrazol-1-yl)cyclobutanecarbonitrile], for which the pIC50 on JAK1 is 7.20; on JAK2 it was 7.66; at TYK2, 8.05; on JAK3 it was 5.73.

With `CS(=O)(=O)N1CC(CC#N)(n2ccc(-c3nc(-c4c[nH]nc4N)cc4ncccc34)n2)C1` [Example 93, [3-{3-[7-(3-amino-1H-pyrazol-4-yl)-1,6-naphthyridin-5-yl]-1H-pyrazol-1-yl}-1-(methylsulfonyl)azetidin-3-yl]acetonitrile], the pIC50 was 6.92 at JAK1, 7.34 at JAK2, 8.15 at TYK2 and 5.30 at JAK3.

For `CCN1CC(CC#N)(n2ccc(-c3nc(-c4c[nH]nc4N)cc4ncccc34)n2)C1` [Example 94, (3-{3-[7-(3-amino-1H-pyrazol-4-yl)-1,6-naphthyridin-5-yl]-1H-pyrazol-1-yl}-1-ethylazetidin-3-yl)acetonitrile], the pIC50 on JAK1 is 5.68; on JAK2 it was 6.03; on TYK2, 7.03; at JAK3 it was less than 5.00.

For the compound `CO[C@H]1C[C@](CC#N)(n2ccc(-c3nc(-c4c[nH]nc4N)cc4ncccc34)n2)C1` [Example 95, (trans-1-{3-[7-(3-amino-1H-pyrazol-4-yl)-1,6-naphthyridin-5-yl]-1H-pyrazol-1-yl}-3-methoxycyclobutyl)acetonitrile], the pIC50 is 6.00 on JAK1, 6.45 on JAK2, 7.66 on TYK2 and less than 5.00 at JAK3.

As for `CO[C@H]1C[C@](CC#N)(n2ccc(-c3nc(-c4c[nH]nc4N)cc4ncccc34)n2)C1` [Example 96, (cis-1-{3-[7-(3-amino-1H-pyrazol-4-yl)-1,6-naphthyridin-5-yl]-1H-pyrazol-1-yl}-3-methoxycyclobutyl)acetonitrile], the pIC50 at JAK1 was 6.10; at JAK2, 6.61; on TYK2, 7.51; on JAK3, less than 5.00.

For `N#CC[C@]1(n2ccc(-c3nc(-c4c[nH]nc4N)cc4ncccc34)n2)C[C@@H](C#N)C1` [Example 97, cis-3-{3-[7-(3-amino-1H-pyrazol-4-yl)-1,6-naphthyridin-5-yl]-1H-pyrazol-1-yl}-3-(cyanomethyl)cyclobutanecarbonitrile], the pIC50 on JAK1 was 7.92; at JAK2 it was 8.22; on TYK2 it was 8.30; at JAK3, 6.13.

`N#CC[C@]1(n2ccc(-c3nc(-c4c[nH]nc4N)cc4ncccc34)n2)C[C@H](C#N)C1` [Example 98, trans-3-{3-[7-(3-amino-1H-pyrazol-4-yl)-1,6-naphthyridin-5-yl]-1H-pyrazol-1-yl}-3-(cyanomethyl)cyclobutanecarbonitrile]: the pIC50 was 7.14 on JAK1, 7.48 on JAK2, 8.10 at TYK2 and 5.28 at JAK3.

On to `Cn1cc(-c2cc3ncccc3c(-c3ccn(C4(CC#N)CN(CC(F)(F)F)C4)n3)n2)cn1` [Example 99, [3-{3-[7-(1-methyl-1H-pyrazol-4-yl)-1,6-naphthyridin-5-yl]-1H-pyrazol-1-yl}-1-(2,2,2-trifluoroethyl)azetidin-3-yl]acetonitrile], for which the pIC50 at JAK1 is 6.25; at JAK2 it was 6.88; on TYK2, 7.80; on JAK3 it was less than 5.00.

As for `Cn1cc(-c2cc3ncccc3c(-c3ccn(C4(CC#N)CN(CC#N)C4)n3)n2)cn1` [Example 100, 2,2′-(3-{3-[7-(1-methyl-1H-pyrazol-4-yl)-1,6-naphthyridin-5-yl]-1H-pyrazol-1-yl}azetidine-1,3-diyl)diacetonitrile], the pIC50 at JAK1 is 6.37; at JAK2, 7.15; at TYK2, 7.85; on JAK3, less than 5.00.

Regarding `Cn1cc(-c2cc3ncccc3c(-c3ccn([C@]4(CC#N)C[C@@H](C#N)C4)n3)n2)cn1` [Example 102, trans-3-(cyanomethyl)-3-{3-[7-(1-methyl-1H-pyrazol-4-yl)-1,6-naphthyridin-5-yl]-1H-pyrazol-1-yl}cyclobutanecarbonitrile], the pIC50 at JAK1 was 6.23; at JAK2 it was 7.05; on TYK2 it was 7.77; on JAK3, 5.02.

For the compound `Cn1cc(-c2cc3ncccc3c(-c3ccn(C4(CC#N)CN(S(C)(=O)=O)C4)n3)n2)cn1` [Example 104, [3-{3-[7-(1-methyl-1H-pyrazol-4-yl)-1,6-naphthyridin-5-yl]-1H-pyrazol-1-yl}-1-(methylsulfonyl)azetidin-3-yl]acetonitrile], the pIC50 on JAK1 was 5.86; at JAK2 it was 6.79; on TYK2, 7.72; at JAK3 it was less than 5.00.

With `CCS(=O)(=O)N1CC(CC#N)(n2ccc(-c3nc(-c4cnn(C)c4)cc4ncccc34)n2)C1` [Example 105, [1-(ethylsulfonyl)-3-{3-[7-(1-methyl-1H-pyrazol-4-yl)-1,6-naphthyridin-5-yl]-1H-pyrazol-1-yl}azetidin-3-yl]acetonitrile], the pIC50 at JAK1 is 5.87; at JAK2, 6.76; at TYK2 it was 7.41; at JAK3 it was 5.09.

`CCCS(=O)(=O)N1CC(CC#N)(n2ccc(-c3nc(-c4cnn(C)c4)cc4ncccc34)n2)C1` [Example 106, [3-{3-[7-(1-methyl-1H-pyrazol-4-yl)-1,6-naphthyridin-5-yl]-1H-pyrazol-1-yl}-1-(propylsulfonyl)azetidin-3-yl]acetonitrile]: the pIC50 on JAK1 was 5.27; on JAK2, 6.05; at TYK2 it was 6.86; on JAK3 it was less than 5.00.

Turning to `Cn1cc(-c2cc3ncccc3c(-c3ccn(C4(CC#N)CN(S(=O)(=O)C5CC5)C4)n3)n2)cn1` [Example 107, [1-(cyclopropylsulfonyl)-3-{3-[7-(1-methyl-1H-pyrazol-4-yl)-1,6-naphthyridin-5-yl]-1H-pyrazol-1-yl}azetidin-3-yl]acetonitrile], the pIC50 at JAK1 was 6.00; on JAK2 it was 6.61; on TYK2, 7.62; at JAK3, less than 5.00.

Turning to `Cn1cc(-c2cc3ncccc3c(-c3ccn(C4(CC#N)CN(S(N)(=O)=O)C4)n3)n2)cn1` [Example 108, 3-(cyanomethyl)-3-{3-[7-(1-methyl-1H-pyrazol-4-yl)-1,6-naphthyridin-5-yl]-1H-pyrazol-1-yl}azetidine-1-sulfonamide], the negative-log IC50 (pIC50) at JAK1 is 6.51; on JAK2 it was 7.30; on TYK2, 7.80; at JAK3 it was 5.80.

For `CNS(=O)(=O)N1CC(CC#N)(n2ccc(-c3nc(-c4cnn(C)c4)cc4ncccc34)n2)C1` [Example 109, 3-(cyanomethyl)-N-methyl-3-{3-[7-(1-methyl-1H-pyrazol-4-yl)-1,6-naphthyridin-5-yl]-1H-pyrazol-1-yl}azetidine-1-sulfonamide], the pIC50 was 5.63 at JAK1, 6.42 at JAK2, 7.17 on TYK2 and less than 5.00 at JAK3.

With `CO[C@H]1C[C@@](CC#N)(n2ccc(-c3nc(-c4cnn(C)c4)cc4ncccc34)n2)C1` [Example 110, (cis-3-methoxy-1-{3-[7-(1-methyl-1H-pyrazol-4-yl)-1,6-naphthyridin-5-yl]-1H-pyrazol-1-yl}cyclobutyl)acetonitrile], the pIC50 on JAK1 is 5.39; on JAK2, 6.25; on TYK2 it was 7.21; at JAK3, less than 5.00.

`CCn1cc(-c2cc3ncccc3c(-c3ccn(C4(CC#N)CN(CC(F)(F)F)C4)n3)n2)cn1` [Example 111, [3-{3-[7-(1-ethyl-1H-pyrazol-4-yl)-1,6-naphthyridin-5-yl]-1H-pyrazol-1-yl}-1-(2,2,2-trifluoroethyl)azetidin-3-yl]acetonitrile]: the pIC50 at JAK1 is 6.34; on JAK2, 6.86; on TYK2, 7.57; at JAK3 it was 5.04.

`CN(C)CCn1cc(-c2cc3ncccc3c(-c3ccn([C@]4(CC#N)C[C@H](C#N)C4)n3)n2)cn1` [Example 114, cis-3-(cyanomethyl)-3-[3-(7-{1-[2-(dimethylamino)ethyl]-1H-pyrazol-4-yl}-1,6-naphthyridin-5-yl)-1H-pyrazol-1-yl]cyclobutanecarbonitrile]: the pIC50 on JAK1 is 6.39; on JAK2 it was 7.39; at TYK2 it was 7.34; on JAK3 it was 5.93.

For the origin of these results see US11254668B2, “Pyrazolo[1,5-A]pyrazin-4-yl and related derivatives” (Pfizer Inc., priority 2017, dated 2022).
